In patent US9790233B2, “Compositions and methods of modulating 15-PGDH activity” (CASE WESTERN RESERVE UNIVERSITY, priority 2012, dated 2017):
Read-outs that look alike come from different tables or passages of the source.

Experiments:
[1] = test system: 15-PGDH-luciferase fusion reporter in V9m, LS174T and V503 cells; experiment: 15-PGDH-luciferase fusion gene reporter induction, stated for the three cell line backgrounds together; type: cell-based; settings: FIG. 1
A549 cells = experiment: PGE2 levels in the medium of IL1-beta stimulated A549 cells; type: cell-based;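 note: PGE2 in the collected culture medium quantified by enzyme immunoassay (ELISA), with data drawn from three independent experiments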
15-PGDH protein [2] = target: T1, 15-PGDH protein (Homo sapiens (Human), UniProt P15428); experiment: Shift of melting temperature of recombinant 15-PGDH (SYPRO Orange); type: binding; settings: FIG. 14
T1 sequence (P15428 whole entry): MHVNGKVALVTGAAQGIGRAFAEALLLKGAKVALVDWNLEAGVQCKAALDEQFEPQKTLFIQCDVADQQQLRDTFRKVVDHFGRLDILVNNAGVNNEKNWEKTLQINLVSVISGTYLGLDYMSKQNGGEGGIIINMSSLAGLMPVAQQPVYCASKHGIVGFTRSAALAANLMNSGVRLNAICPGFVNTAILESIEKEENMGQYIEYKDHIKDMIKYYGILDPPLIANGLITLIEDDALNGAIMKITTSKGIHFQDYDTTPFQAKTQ

15-PGDH protein [3] = target: T1, 15-PGDH protein; experiment: 15-PGDH protein levels in treated cells (western blot, immuno-fluorescence); type: cell-based; settings: […] compound for 48 hours; colon cell lines
[4] = Metabolic stability with murine liver S9; type: in vitro ADME; settings: mouse, liver S9 fraction; Murine S9 fraction, Phase I cofactors, 0-240 minutes
Experimental: SW054384 (2 mM in DMSO) was incubated with Murine S9 (Lot KWB) fraction and Phase I (NADPH Regenerating System) cofactors for 0-240 minutes. Reactions were quenched with a 1 mL (1:1) of MeOH/(+)IS/0.2% Formic Acid, vortexed for 15 seconds, incubated at RT for 10 minutes and spun for 5 minutes at 2400 rpms. […] Supernatant (800 μL) was transferred to an HPLC vial (w/out insert) and analyzed by HPLC/MS. A: dH2O+0.1% FA B: MeOH+0.1% FA
SW125991 (2 mM in DMSO) was incubated with Murine S9 (Lot KWB) fraction and Phase I (NADPH Regenerating System) cofactors for 0-240 minutes. Reactions were quenched with 1 mL (1:1) of methanol containing 0.2% formic acid and 100 ng/ml IS (IS final conc.=50 ng/ml). Samples were vortexed for 15 seconds, incubated at RT for 10 minutes and spun for 5 minutes at 2400 rpm. […] Supernatant (800 μL) was transferred to an HPLC vial (w/out insert). Analyzed by Qtrap 3200 mass spectrometer.

[5] = test system: 15-PGDH luciferase fusion construct in V9m reporter cell line; experiment: 15-PGDH-luciferase fusion gene reporter induction, V9m cells; type: cell-based; settings: % induction of luciferase activity over basal level
15-PGDH mRNA = 15-PGDH mRNA levels by real-time PCR; type: cell-based; settings: treated colon cancer cell lines
15-PGDH protein [6] = target: T1, 15-PGDH protein; experiment: Inhibition of enzymatic activity of recombinant 15-PGDH in vitro (tritium transfer from PGE2 or NADH fluorescence); type: biochemical; settings: for IC50: read-out: IC50
[7] = test system: 15-PGDH luciferase fusion construct in LS174T reporter cell line; experiment: 15-PGDH-luciferase fusion gene reporter induction, LS174T cells; type: cell-based; settings: Homo sapiens
[8] = test system: 15-PGDH luciferase fusion construct in Vaco503 reporter cell line; experiment: 15-PGDH-luciferase fusion gene reporter induction, V503 cells; type: cell-based; settings: read-out: V503-3H9-7 reporter activity, % ([…]), V503 reporter cells, […] compound, % induction of luciferase activity over basal level

## COc1ccc(OC)c(N(CC(=O)Nc2cccnc2)S(=O)(=O)c2ccccc2)c1 [SW054384]
[1]
  concentration of maximum reporter activity: 6.25 µM
[1]; V9m, LS174T, V503
  luciferase activity of cells expressing 15-PGDH luciferase fusion construct: increase luciferase activity
A549 cells
  lowering of PGE2 levels in media: show activity in lowering PGE2
A549 cells; compound added 24 hours before IL1-beta, maintained 26 hours with IL1-beta
  PGE2 levels in medium: lower level of PGE2 produced
A549 cells; media of IL-1beta stimulated A549 cells
  Decrease PGE-2 (IL-1beta-A549, %): 41.96%
15-PGDH protein [2]
  direct binding to recombinant 15-PGDH (melting temperature shift): cannot be demonstrated to bind 15-PGDH
15-PGDH protein [3]
  levels of 15-PGDH protein (western blot): increase levels of 15-PGDH protein
[4]
  half-life: 21.7 min
[5]; read-out: V9M-SC3 Reporter activity ([…]) (%), V9m reporter cells, […] compound, read-out: V9M-SC3 Reporter activity (2.5 μM) (%)
  activation at […]: 116%
[5]; read-out: V9M-SC3 Reporter activity ([…]), %, V9m reporter cells, […] compound, read-out: V9M-SC3 Reporter activity (7.5 μM), %
  activation at […]: 148%
15-PGDH mRNA
  15-PGDH mRNA levels (real-time PCR): do not in general alter 15-PGDH mRNA levels
15-PGDH protein [6]
  IC50 higher than that of SW033291: 10,000 fold
15-PGDH protein [6]; 15-PGDH-GST fusion protein, FIG. 11
  IC50: 5 to 50 µM
15-PGDH protein [6]; fluorescent based assay, FIG. 12
  IC50: 11 µM
15-PGDH protein [6]; tritium assay, FIG. 12
  IC50: 8.4 µM
[7]; read-out: Ls174T-SC1 reporter activity, % ([…]), LS174T reporter cells, […] compound, % induction of luciferase activity over basal level, read-out: Ls174T-SC1 reporter activity, % (2.5 μM)
  activation at […]: 130%
[7]; read-out: Ls174T-SC1 reporter activity, % ([…]), LS174T reporter cells, […] compound, % induction of luciferase activity over basal level, read-out: Ls174T-SC1 reporter activity, % (7.5 μM)
  activation at […]: 156%
[8]; read-out: V503-3H9-7 reporter activity, % (2.5 μM)
  activation at […]: 149%
[8]; read-out: V503-3H9-7 reporter activity, % (7.5 μM)
  activation at […]: 157%
